Source: patent US20250332096A1, “BEVERAGE FORMULATION AND METHOD OF PROMOTING CELLULAR HYDRATION BY ENHANCING INTRACELLULAR PERMEATION” (Eastpond Laboratories Limited, priority 2024, published 2025)
One block for each molecule: values may come before it.

Columns and labels:
C. elegans = C. elegans longevity in hydration modified water (Example 5); assay type: in vivo; conditions: for Animals alive, % of initial: 0.1% w/w in nutritive media, USA I water; for effect on C. elegans survival: added to the culture media
Experimental: C. elegans nematodes were grown in petri-type dishes containing normal nutrient liquid media prepared alternatively with USA I water (described in Example 2) lacking any further additive component (control) or the same water supplemented with a parent α-, β-, or γ-cyclodextrin, and/or a bioactive agent, as an active component of cellular hydration. Fifty ±3 worms were transferred to each dish. Each condition was repeated in triplicate. Experiments were repeated for USA II and BP I waters described in Example 2.
• A. Addition of parent α-, β- and γ-cyclodextrins. • B. Addition of L-arginine and nicotinamide. • C. Addition of inclusion complexes of cyclodextrins with L-arginine and nicotinamide.

[1] = Water bonding detected by NIR spectroscopy; assay type: physicochemical; conditions: wavelength region 900-1200 nm; 0.1%-5% w/w
[2] = Water bonding detected by NIR spectroscopy; assay type: physicochemical; conditions: for water-bond interactions, second-derivative NIR spectra: 0.1%-5% w/w
Experimental: Hydration bond energies in pure waters and solutions of the same waters containing cyclodextrin compounds were assayed using IR spectroscopy in the near and middle infrared ranges. To record linear signals throughout an entire wavelength range, attenuation from water absorbance was minimized with a short optical length cuvette. NIR range spectra were registered on a FOSS NIR Systems, Inc. 6500 spectrometer and Sample Transport Module (STM) using a 1 mm-sized cuvette. Transmission spectra were collected from 1100-2498 nm using a lead sulfide (PbS) detector and Vision 2.51 software (2001; FOSS NIRSystems, Inc.) A Perkin-Elmer Spectrum 400 FT-NIR/FT-IR spectrometer and UATR (Universal Attenuated Total Reflectance; ZnSe-diamond crystal, 1× flat top plate) sample handling unit were used to obtain spectra across 2500-15385 nm (reported as 4000-650 cm^1). Measurements were performed at 24 C using a triglycine-sulfate (TGS) detector and Spectrum ES 6.3.2 software (PerkinElmer, 2008). Three samples of water were used in the present study. A first water sample was purified by reverse osmosis, carbon filtration, ultraviolet light exposure, membrane filtration to 0.2 micron absolute, and ozonation. Second and third water samples were not purified. […] No. CYL-2322. • β-cyclodextrin (βCD also denoted as BCD). Lot. No. CYL-2518/2. • γ-cyclodextrin (γCD also denoted as GCD), Lot. No. […] No. […] No. CYL-2258. • carboxymethyl-β-cyclodextrin (CMBCD), Lot. No. CYL-2576. • quaternary-ammonium-β-cyclodextrin (QABCD).

[3] = Surface tension of test solutions; assay type: physicochemical; conditions: purified water
Experimental: (§1) 1:1 mol/mol stoichiometry complexes were prepared for the experiment. Nicotinic acid/alpha-CD complex was prepared by dissolving 11.22 g nicotinic acid and 98.63 g alpha-CD (89.66 g on dry basis) in 700 ml purified water. Nicotinamide/alpha-CD complex was prepared by dissolving 5.57 g nicotinamide and 49.3 g alpha-CD (44.4 g on dry basis) in 350 ml purified water and L-arginine/alpha-CD complex was prepared by dissolving 15.18 g L-arginine and 94.26 g alpha-CD (85.69 g on dry basis) in 700 ml purified water. Further, for all the three complexes, the liquid was frozen in dry ice bath and lyophilized. The dry lyophilizate was ground and sieved.
(§2) Clarity, pH, conductivity, density, viscosity, turbidity, surface tension and osmolality were determined in solutions prepared with purified water. […]

pH of test solutions = assay type: physicochemical; conditions: purified water
Experimental: as §1, §2

[4] = Visual inspection (clarity) of test solutions; assay type: physicochemical; conditions: purified water
Experimental: as §1, §2

[5] = Viscosity of test solutions; assay type: physicochemical; conditions: purified water, 2.00%
Experimental: as §1
Clarity, pH, conductivity, density, viscosity, turbidity, surface tension and osmolality were determined in solutions prepared with purified water.

[6] = Density measurements of test solutions; assay type: physicochemical
Experimental: The current study further manifests the density measurements in a cyclodextrin concentration dependent manner.
Water samples used were bottled water and tap water; wherein the tap water comprises the following impurities and properties: Free active chlorine (0.18 mg/1), Chloride (24 mg/1), Iron (6 μg/1), Manganese (2 μg/1), Nitrate (9 mg/1), Nitrite (<0.03 mg/1), Ammonium (<0.04 mg/1), Hardness of water (122 mg/l CaO), Conductivity (442 μS/cm) and pH 8. Purified water was produced by removal of dissolved ions by Merck/Millipore Synergy® Water Purification System at Cyclolab. The water quality produced Type 1 water (18.2 MΩ·cm at 25° C. ultrapure water) from pretreated water.
as §1, §2
However, it may not be established exactly which ionic species (Mg2+, Ca2+, Na+) causes this perturbation.

[7] = Conductivity of test solutions; assay type: physicochemical; conditions: purified water
Experimental: as §1, §2

[8] = Turbidity of test solutions; assay type: physicochemical; conditions: purified water (reference)
Experimental: as §1, §2

[9] = tested on: Wheat seeds (Triticum aestivum); test: Wheat seed germination; assay type: in vivo; conditions: 0.5% w/w in USA I water
Experimental: Wheat seeds (Triticum aestivum) were germinated using USA I, USA II, and BP I waters described for Example 2. Germination rate using un-supplemented (control) water was compared to that with the same water variously supplemented with a cyclodextrin component, and/or a bioactive agent, as an active component of cellular hydration. For each condition, ten seeds were placed in continuous water contact in a Petri-type dish kept at 25 C in 12 hr light/dark cycles. Photometric images were recorded on days 1 to 6 after seeding. The percentage of seeds germinated was calculated and compared as a function of time and of the applied additive concentrations.
Water samples for seed germination were used alone with no additive, or containing cyclodextrins, or containing clathrate inclusion complexes of cyclodextrin with L-arginine or with nicotinamide (both obtained from Sigma Chemical Co.; St. Louis, MO), or with L-carnitine (from Lonza AG; Switzerland). […] Additive solutions were prepared fresh on the day of germination start.
Parent cyclodextrins α-cyclodextrin (ACD), β-cyclodextrin (BCD), and γ-cyclodextrin (GCD), were obtained from Wacker Chemie (Munich, Germany). The following derivatized cyclodextrins were obtained from Cyclolab Ltd. (Budapest, Hungary): hydroxypropylated-beta-cyclodextrin (DS-3)(HPBCD), carboxymethylated-β-cyclodextrin (DS-3.5)(CMBCD), 2-hydroxy-3-N,N,N-trimethylamino)propyl-β-cyclodextrin chloride (DS-3.6)(QABCD).
Germination kinetics in control and additive-modified water under identical conditions were quantified as the percentage of the seeds having a sprout. Each determination consisted of 100 seeds for each parameter. Results are reported in Table 5, below, and in FIGS. 11-13. • A) Cyclodextrin/L-Arg Inclusion Complex Increases Seed Germination.

Molecule: N=C(N)NCCC[C@H](N)C(=O)O [L-arginine, reference compound]
effect on C. elegans survival (C. elegans): little effect

Molecule: NC(=O)c1cccnc1 [nicotinamide, reference compound]
effect on C. elegans survival (C. elegans): little effect
wheat seed germination, percentage of the seeds having a sprout ([9]; day 0): 0%
wheat seed germination, percentage of the seeds having a sprout ([9]; day 1): 0%
wheat seed germination, percentage of the seeds having a sprout ([9]; day 2): 4%
wheat seed germination, percentage of the seeds having a sprout ([9]; day 3): 10%
wheat seed germination, percentage of the seeds having a sprout ([9]; day 4): 60%

Molecule: OC[C@H]1O[C@@H]2O[C@H]3[C@H](O)[C@@H](O)[C@@H](O[C@H]4[C@H](O)[C@@H](O)[C@@H](O[C@H]5[C@H](O)[C@@H](O)[C@@H](O[C@H]6[C@H](O)[C@@H](O)[C@@H](O[C@H]7[C@H](O)[C@@H](O)[C@@H](O[C@H]8[C@H](O)[C@@H](O)[C@@H](O[C@H]1[C@H](O)[C@H]2O)O[C@@H]8CO)O[C@@H]7CO)O[C@@H]6CO)O[C@@H]5CO)O[C@@H]4CO)O[C@@H]3CO [β-Cyclodextrin, β-cyclodextrin]
Animals alive, % of initial (C. elegans; life span 10 days): 100 % of initial
Animals alive, % of initial (C. elegans; life span 15 days): 18 % of initial
Animals alive, % of initial (C. elegans; life span 18 days): 0 % of initial

More lines, main results first:

water-bond interactions, second-derivative NIR spectra [1]: significantly modified
water-bond interactions, second-derivative NIR spectra ([2]; 1200-1500 nm): significantly modified
water-bond interactions, second-derivative NIR spectra ([2]; 1620-1710 nm): significantly modified
water-bond interactions, second-derivative NIR spectra ([2]; 2170-2370 nm): further significantly modified
modification of micro-structure of hydrogen bonded cluster systems in bulk water (spectral changes) ([2]; comparison among cyclodextrin-treated water samples): largest
Molecule: 2-hydroxy-3-N,N,N-trimethylamino)propyl-β-cyclodextrin chloride [Quaternary-ammonium-β-Cyclodextrin]
Animals alive, % of initial (C. elegans; life span 10 days): 98 % of initial
Animals alive, % of initial (C. elegans; life span 15 days): 13 % of initial
Animals alive, % of initial (C. elegans; life span 18 days): 2 % of initial

Surface Tension ([3]; 0.05%): 72 mN · m^−1
Surface Tension ([3]; 0.10%): 72 mN · m^−1
Surface Tension ([3]; 1.00%): 73 mN · m^−1
Surface Tension ([3]; 2.00%): 73 mN · m^−1
pH (pH of test solutions; 0.05%): 6.82
pH (pH of test solutions; 0.10%): 6.79
pH (pH of test solutions; 1.00%): 6.87
pH (pH of test solutions; 2.00%): 6.77
Visual Inspection ([4]; 0.05%): clear
Visual Inspection ([4]; 0.10%): clear
Visual Inspection ([4]; 1.00%): hazy
Visual Inspection ([4]; 2.00%): hazy
Viscosity (25 C.) [5]: 0.97 cP
Density (at 22 C.) ([6]; Tap water, 0.05%): 0.9997 ± 0.0007 g/cm³
Density (at 22 C.) ([6]; Tap water, 0.10%): 1.0002 ± 0.0004 g/cm³
Density (at 22 C.) ([6]; Tap water, 1.00%): 1.0035 ± 0.0007 g/cm³
Density (at 22 C.) ([6]; Tap water, 2.00%): 1.0094 ± 0.0006 g/cm³
Density (at 22 C.) ([6]; purified water, 0.05%): 0.995 ± 0.001 g/cm³
Conductivity ([7]; 0.05%): 25.0 μS · cm^−1
Conductivity ([7]; 0.10%): 25.0 μS · cm^−1
Conductivity ([7]; 1.00%): 27.0 μS · cm^−1
Conductivity ([7]; 2.00%): 27.0 μS · cm^−1
Turbidity (Abs, λ = 410 nm) ([8]; 1.00%): 0.065 Abs
Turbidity (Abs, λ = 410 nm) ([8]; 2.00%): 0.108 Abs
Molecule: OC[C@H]1O[C@@H]2O[C@H]3[C@H](O)[C@@H](O)[C@@H](O[C@H]4[C@H](O)[C@@H](O)[C@@H](O[C@H]5[C@H](O)[C@@H](O)[C@@H](O[C@H]6[C@H](O)[C@@H](O)[C@@H](O[C@H]7[C@H](O)[C@@H](O)[C@@H](O[C@H]8[C@H](O)[C@@H](O)[C@@H](O[C@H]9[C@H](O)[C@@H](O)[C@@H](O[C@H]1[C@H](O)[C@H]2O)O[C@@H]9CO)O[C@@H]8CO)O[C@@H]7CO)O[C@@H]6CO)O[C@@H]5CO)O[C@@H]4CO)O[C@@H]3CO [Gamma Cyclodextrin, γ-cyclodextrin]
number of animals surviving to old ages (C. elegans; after day 15, 0.1% w/w): significantly increased
Animals alive, % of initial (C. elegans; life span 10 days): 100 % of initial
Animals alive, % of initial (C. elegans; life span 15 days): 13 % of initial
Animals alive, % of initial (C. elegans; life span 18 days): 2 % of initial

water-bond interactions, second-derivative NIR spectra [1]: further significantly modified
water-bond interactions, second-derivative NIR spectra ([2]; 1200-1500 nm): significantly modified
water-bond interactions, second-derivative NIR spectra ([2]; 1620-1710 nm): significantly modified
water-bond interactions, second-derivative NIR spectra ([2]; 2170-2370 nm): significantly modified
Molecule: CC(O)COC[C@H]1O[C@@H]2O[C@H]3[C@H](O)[C@@H](O)[C@@H](O[C@H]4[C@H](O)[C@@H](O)[C@@H](O[C@H]5[C@H](O)[C@@H](O)[C@@H](O[C@H]6[C@H](O)[C@@H](O)[C@@H](O[C@H]7[C@H](O)[C@@H](O)[C@@H](O[C@H]8[C@H](O)[C@@H](O)[C@@H](O[C@H]1[C@H](O)[C@H]2O)O[C@@H]8COCC(C)O)O[C@@H]7COCC(C)O)O[C@@H]6COCC(C)O)O[C@@H]5COCC(C)O)O[C@@H]4COCC(C)O)O[C@@H]3COCC(C)O (stereo partly drawn) [HP-β-Cyclodextrin, 2-hydroxypropyl-β-cyclodextrin]
Animals alive, % of initial (C. elegans; life span 10 days): 96 % of initial
Animals alive, % of initial (C. elegans; life span 15 days): 17 % of initial
Animals alive, % of initial (C. elegans; life span 18 days): 0 % of initial

water-bond interactions, second-derivative NIR spectra [1]: further significantly modified
water-bond interactions, second-derivative NIR spectra ([2]; 1200-1500 nm): further significantly modified
water-bond interactions, second-derivative NIR spectra ([2]; 1620-1710 nm): significantly modified
water-bond interactions, second-derivative NIR spectra ([2]; 2170-2370 nm): significantly modified
Molecule: carboxymethyl-β-cyclodextrin
Animals alive, % of initial (C. elegans; life span 10 days): 94 % of initial
Animals alive, % of initial (C. elegans; life span 15 days): 11 % of initial
Animals alive, % of initial (C. elegans; life span 18 days): 0 % of initial
